According to patent US20070069122A1, “In situ polypeptide identification” (priority 2005, published 2007):

Legend:
[1] = test system: transthyretin (prealbumin); assay: Western blot of kidney cortex cytosolic fraction and HPLC fraction D10; format: in vivo, rat; conditions: kidney cortex cytosolic fraction
Description: Tissue extracts from control and treated rat kidneys were obtained by homogenization of a piece of cortex in a 10 mM Tris-HCl buffer pH 7.6 containing 250 mM sucrose and protease inhibitors (Roche Complete). The tissue extract was subjected to three successive centrifugation steps at 4° C. (10 min at 680 g; 10 min at 10 000 g; 1 h at 100 000 g) whereas the pellets were discarded and the supernatant of the last centrifugation step was kept as the kidney cytosolic fraction.
1 μl of the kidney cytosolic fraction and of the relevant HPLC fraction were subjected to electrophoresis using a 4-20% Tris-Glycine SDS-PAGE gel (Invitrogen) and the proteins were subsequently transferred to a PVDF membrane. Blots were blocked in 5% milk in PBS containing 0.1% Tween 20 for 1 h and incubated overnight at room temperature with an […] (Abcam) in PBS containing 5% milk and 0.1% Tween 20. After washing with PBS containing 0.1% Tween 20, blots were incubated for 1 h with horseradish peroxidase conjugated with an anti-sheep IgG antibody (Silenus Laboratories). Antibody binding was detected using ECL western blotting reagents (Amersham).

transthyretin = assay: Immunohistochemical examination of kidney; format: in vivo; conditions: treated versus control rat, whole kidney sections
Source text: FIG. 8: Immunohistochemical examination of kidney from control and gentamicin-treated rat. […] High magnification photomicrographs from the cortex (C, E) vs. the medulla (D, F) reveal specific localization of TTR immunoreactivity in the cortex tubules of the treated kidney. Transthyretin immunoreactivity is visualized by the grey precipitate of diaminobenzidine-Ni counterstained with cresyl violet.

rat kidney cortex = assay: MALDI IMS profiling of rat kidney cortex thin sections, gentamicin-treated versus control; format: in vivo
Description: (§1) Animals were treated for 7 consecutive days with 100 mg/kg/day Gentamicin (dissolved in saline) or vehicle by subcutaneous (sc) injections and sacrificed 24 hours after the last application by CO2 inhalation. Immediately preceding sacrifice, terminal blood samples for clinical chemistry investigations were collected from the retroorbital sinus under isofluoran anesthesia.
Marked degeneration/regeneration of proximal tubules (grade 4) was clearly observed in rats treated with 100 mg/kg/day gentamicin for 7 days. This finding was correlated to the analysis of rat kidney thin sections by MALDI IMS. 9 control and 9 gentamicin-treated rat kidneys thin sections (3 animals, 3 sections from each animal; the thin section was spotted with matrix as shown in FIG. 1) were subjected to mass spectrometric analysis as described below.
Kidneys were dissected from rats, snap frozen on dry ice and stored at −80° C. prior to further processing. 12 μm sections were obtained on a cryostat (LEICA CM 3000, Leica Microsystems) at −18° C. and deposited on ITO-coated conductive glass slides (Indium Tin Oxide 50×75×0.9 mm, Delta Technologies). Sample preparation were performed according to published procedure (Schwartz, S. A., Reyzer, M. L., and Caprioli, R. M. (2003) Journal of Mass Spectrometry 38, 699-708). Tissue sections were then fixed by immersion in ethanol bathes and let to dry 30 minutes under vacuum. During all the process the sections were stored as much as possible under vacuum. Deposition of MALDI matrix was done manually with a pipette. 200 nL of freshly prepared sinapinic acid solution (3,5-dimethoxy-4-hydroxycinnaminic acid, Fluka, 20 mg/ml in water/acetonitrile 1:1, 0.1% trifluoroacetic acid) was deposited onto the tissue. After crystallization, an additional 200 nL was layered onto the spots and the matrix was let to dry at room temperature. The sample was then kept under vacuum if not analyzed immediately by mass spectrometry.
MALDI MS spectra were acquired using an UltraFlex MALDI ToF/ToF instrument (Bruker Daltonics) with a standard 337-nm N2 laser operating at 50Hz and a laser spot size of 50 μm. The instrument was operated in positive linear mode (2 kDa-30 kDa) at constant laser power. A total of 8 times 100 laser shots were averaged for each manually deposited matrix droplets. Spectra were externally calibrated using a protein calibration standard solution (Insulin, Ubiquitin I, Cytochrom C, Myoglobin; Bruker Daltonics). Internal calibration was performed post-acquisition using redundant known peaks from the spectra (Hemoglobin α-chain, Thymosin β-4, Cytochrome c oxidase polypeptide VIIa L, Ubiquitin, Cytochrome c oxidase polypeptide VIb).
The spectra were processed using a combination of tools available commercially and developed in-house at Vanderbilt University. Baseline subtraction, normalization, peak detection, and spectral alignment were performed using the ProTS-Data software (Efeckta Technologies, Inc.) All spectra were baseline corrected to remove contributions of chemical noise to the signal. This step was performed by locally estimating the baseline and subtracting the […] from the raw data. For the present data set the software was set to consider a window width 10 times that of the peak width to account for the differences in resolution for different m/z regions. The baseline corrected spectra were normalized in intensity by scaling the spectra to a common total ion current. Peak detection was performed using ProTS-Data and a list of 13 common peaks was selected to be internal alignment points using a quadratic calibration function. The criterion used to select common peaks were that the peak must occur in greater than 80% of the spectra to be aligned, must not have interfering or overlapping peaks, and the peaks must have a standard deviation of the observed centroid value less that 7 mass units. […]

kidney proximal tubules = assay: Histology of kidney after gentamicin treatment (model system for nephrotoxicity); format: in vivo, rat; conditions: rats, 100 mg/kg/day sc for 7 days
Source text: Permission for animal studies was obtained from the local regulatory agencies, and all study protocols were in compliance with animal welfare guidelines. Male HanBrl: Wistar rats of approximately 12 weeks of age (300g±20%) were obtained from BRL, Füllinsdorf, Switzerland. The animals were housed individually in Macrolone cages with wood shavings as bedding at […] and 50% relative humidity in a 12-hr light/dark rhythm with free access to water and Kliba 3433 rodent pellets (Provimi Kliba AG, Kaiseraugst, Switzerland).
as §1
Representative kidney samples were fixed in 10% neutral buffered formalin. All samples were processed using routine procedures and embedded in Paraplast. Tissue sections approximately 2-3 microns were cut and stained with hematoxylin-eosin (HE) or periodic acid-Schiff (PAS).
Marked degeneration/regeneration of proximal tubules (grade 4) was clearly observed in rats treated with 100 mg/kg/day gentamicin for 7 days. This finding was correlated to the analysis of rat kidney thin sections by MALDI IMS. […]

[2] = kidney cortex, 100 mg/kg/day sc 7 days

With Gentamicin the “transthyretin abundance in kidney by Western blot, gentamicin-treated versus control rats” value [1] was “significantly more abundant”, the “transthyretin immunoreactivity in kidney cortex” value (transthyretin) was “high levels of transthyretin immunoreactivity” and the “presence of species 12959 (transthyretin S28-Q146) in mass spectrum” value (rat kidney cortex; in situ and in HPLC fraction D10) was “only present in the mass spectrum of the gentamicin-treated sample”. For the same substance, the “doubly-charged species at m/z 6480, behaviour in treated versus control cortex” value (rat kidney cortex; kidney cortex) was “showed a similar behavior”, the “Average S/N (gent), peak m/z 3343.714” value (rat kidney cortex; [2]) was 2 and the “Average S/N (gent), peak m/z 4010.498” value (rat kidney cortex; [2]) was 1. For the same substance, the “Average S/N (gent), peak m/z 4107.083” value (rat kidney cortex; [2]) was 5, the “Average S/N (gent), peak m/z 4141.907” value (rat kidney cortex; [2]) was 1 and the “Average S/N (gent), peak m/z 4181.504” value (rat kidney cortex; [2]) was 0. For the same substance, the “Average S/N (gent), peak m/z 4497.792” value (rat kidney cortex; [2]) was 0, the “Average S/N (gent), peak m/z 5096.886” value (rat kidney cortex; [2]) was 5 and the “Average S/N (gent), peak m/z 5222.249” value (rat kidney cortex; [2]) was 0. For the same substance, the “Average S/N (gent), peak m/z 5301.852” value (rat kidney cortex; [2]) was 0, the “Average S/N (gent), peak m/z 5355.669” value (rat kidney cortex; [2]) was 1 and the “Average S/N (gent), peak m/z 5478.957” value (rat kidney cortex; [2]) was 2. The “Average S/N (gent), peak m/z 6080.035” value (rat kidney cortex; [2]) was 1, the “Average S/N (gent), peak m/z 6498.996” value (rat kidney cortex; [2]) was 0 and the “Average S/N (gent), peak m/z 6912.956” value (rat kidney cortex; [2]) was 6. The “Average S/N (gent), peak m/z 6938.997” value (rat kidney cortex; [2]) was 1, the “Average S/N (gent), peak m/z 7083.364” value (rat kidney cortex; [2]) was 6 and the “Average S/N (gent), peak m/z 12959.23” value (rat kidney cortex; [2]) was 5. The “Average S/N (gent), peak m/z 13004.71” value (rat kidney cortex; [2]) was 0, the “Average S/N (gent), peak m/z 17100.68” value (rat kidney cortex; [2]) was 0 and the “Average S/N (gent), peak m/z 17176.83” value (rat kidney cortex; [2]) was 0. The “degeneration/regeneration of proximal tubules, grade” value (kidney proximal tubules) was 4.
